Experiment: Compatibility test of atorvastatin calcium with excipients (water added, sealed vial, 50° C., two weeks; impurities by HPLC, physical changes)
Assay type: physicochemical
Conditions: for Compatibility: 0.2 ml water added, sealed vial, two weeks
Description: In order for an excipient to be used with an embodiment of the formulation of the present invention, it was required to perform acceptably during the compatibility testing. The acceptance criteria for the compatibility test were as follows. […] Physical stability was determined by examining the mixture's appearance in terms of discoloration, liquefaction, dryness and odor or gas.
A granulate or dry mix of the drug substance and each of the excipients requested to the expected ratio in the possible final formulas was prepared. The granulate was prepared manually with a mortar and pestle. The active ingredient is mixed with the ingredient(s) to be tested, then granulated in a mortar and pestle using the aqueous granulation solution. The wet granulate was then dried in an oven at 60° C. down to LOD<5% and then milled.
The compatibility test was performed as follows. Each mixture (blend or granulate) was transferred to a vial, 0.2 ml of purified water was added, and the mixtures were mixed with a Pasteur pipette, which was then broken and inserted in the vial in order to avoid any loss of material.
The vials were then sealed and stored at a temperature of 50° C. for two weeks.
After two weeks the vials were removed, examined for physical changes and were tested for impurities according to the HPLC method (RD 2000-1) as described in greater detail below.
75 ml of diluent was added and the samples were shaken for 30 min, and then diluted to volume with diluent.
5 ml of the above mentioned solution was transferred and diluted in a 10 ml volumetric flask. The diluent for all experiments was water:methanol mixture.
Part of each dry granulate was placed in a 34 ml Securitainer® (a regular secure medicine bottle made from high density polyethylene; available from Jaycare Ltd in the United Kingdom) and placed in incubator at 40° C./75% RH for a 6 month stability study. Next, separate samples containing 1 g of each dry granulate were mixed with 200 μl water (LOD of the blend 16.67%), closed in a glass vial and stored at 50° C. for a 2 week compatibility test.
Results of those compatibility and stability studies are summarized in table 4; a more detailed description of the same results is provided in table 5 below. Stability or compatibility criteria were defined as: maximum known impurity <0.5% (preferably comprising one or both of the Desfluoro (Desfl.) or lactone (Lact.) degradation forms); maximum unknown impurity <0.5%, preferably <0.3%; total impurities <1.5%.
One gram of each blend was mixed with 200 μl purified water (LOD of the blend was 16.67%), placed in a closed glass vial and placed for 2 weeks in an incubator at 50° C. for a compatibility test.

[1] = amorphous atorvastatin calcium, no excipient, 2 weeks, 16.7% LOD

Desfluoro [1] [%] | Lactone [1] [%] | Max unknown impurity [1] [%] | Total Impurities [1] [%] | Compatibility (amorphous Atorvastatin Ca dry mixes) | Compatibility (crystalline form VI Atorvastatin Ca granulates) | SMILES
0.12 | 0.04 | 0.05 | 0.33 |  |  | CC(C)c1c(C(=O)Nc2ccccc2)c(-c2ccccc2)c(-c2ccc(F)cc2)n1CC[C@@H](O)C[C@@H](O)CC(=O)[O-].CC(C)c1c(C(=O)Nc2ccccc2)c(-c2ccccc2)c(-c2ccc(F)cc2)n1CC[C@@H](O)C[C@@H](O)CC(=O)[O-].[Ca+2] [Reference (no excipient added)]
 |  |  |  | Stable | Stable | CC(C)c1c(C(=O)Nc2ccccc2)c(-c2ccccc2)c(-c2ccc(F)cc2)n1CC[C@@H](O)C[C@@H](O)CC(=O)[O-].CC(C)c1c(C(=O)Nc2ccccc2)c(-c2ccccc2)c(-c2ccc(F)cc2)n1CC[C@@H](O)C[C@@H](O)CC(=O)[O-].[Ca+2] [Vial 1]

From patent US20090208539A1, “STABLE ATORVASTATIN FORMULATIONS” (priority 2004, published 2009)
